According to article PMC5584254, “Identification of novel small molecule Beclin 1 mimetics activating autophagy” (Oncotarget, 2017):
Where a name gives a salt, the structure may show the parent alone. Read-outs that look alike come from different tables or passages of the source.

Experiments:
Bcl-xL-Beclin 1 complex [1] = target: T1, Bcl-xL-Beclin 1 complex (Homo sapiens, UniProt Q07817); assay: FP-based high-throughput screening, primary screen; assay type: binding; conditions: first screen; 40 μM compound, 2.5 μM Bcl-xL, 400 nM 20-mer
T1 construct: made in house
Description: Next, we optimized the FP competitive binding assay in a 384-well microplate format and carried out a small-scale HTS using a small library, which contains 6580 compounds from Prestwick, Microsource and our in-house CMLD library. Then, the FP assay was optimized and applied in screening the larger Chembridge library consisting of 43736 compounds. HTS cascades are shown in Supplementary Figure 1A–1B. […] All chemical structures can be found on the PubChem website (http://pubchem.ncbi.nlm.nih.gov/).
(§1) Then the plates were read by Envision (Perkin Elmer, Waltham, MA). […] The hits were selected from library stocks and reconfirmed in a concentration response FP assay (6 doses ranging from 5 μM to 160 μM or 8 doses ranging from 0.5 μM to 60 μM).

Bcl-xL-Beclin 1 complex [2] = target: T1, Bcl-xL-Beclin 1 complex; assay: Concentration response FP reconfirmation of HTS hits; assay type: binding; conditions: for inhibition at 5 µM: read-out: Dose-response (% Inhibition) 5 μM; for inhibition at 10 µM: read-out: Dose-response (% Inhibition) 10 μM; for inhibition at 20 µM: read-out: Dose-response (% Inhibition) 20 μM; for inhibition at 40 µM: read-out: Dose-response (% Inhibition) 40 μM; for inhibition at 80 µM: read-out: Dose-response (% Inhibition) 80 μM; for inhibition at 160 µM: read-out: Dose-response (% Inhibition) 160 μM
Protocol: as §1

PC-3 = assay: MTT-based cytotoxicity assay, PC-3; conditions: Homo sapiens, averages of at least two independent experiments, read-out: Cytotoxicity in different cell lines (IC50, μM) PC-3
Description: (§2) Human prostate cancer cell lines PC-3 and DU145, were purchased from American Type Culture Collection (ATCC) and used within 50 passages. PC-3a is a derivative of PC-3 that is resistant to chemo/radiotherapy, established in our lab and confirmed by genotyping. All cells were maintained in DMEM (Mediatech, Manassas, VA) supplemented with 10% fetal bovine serum (FBS) (Sigma-Aldrich, St. Louis, MO), 1% Glutamine (Mediatech, Manassas, VA), 1% antibiotics (Mediatech, Manassas, VA). Compounds for primary FP-based HTS screening were from Prestwick, Microsource, University of Kansas Center of Excellence in Chemical Methodologies & Library Development (KU CMLD, Lawrence, KS), and Chembridge libraries. Compounds for MTT and SPR validation experiment were purchased from Microsource (Gaylordsville, CT) and Hit2lead Company (San Diego, CA). Acridine analogues, compound 1–6, were from our in-house library (provided by Specialized Chemistry Center, University of Kansas, Lawrence, KS); compound 7–17 were synthesized as described in supplementary information. (–)-Gossypol was isolated from racemic gossypol as we previously described. ABT-263 and DMSO were purchased from Sigma. MTT-based cytotoxicity assay and western blot analysis was carried out according to our previous publications. The primary antibodies used were LC3B (#2775) (Cell signaling Technology, Danvers, MA) and β-actin (A5441) (Sigma).

PC-3a = assay: MTT-based cytotoxicity assay, PC-3a; conditions: Homo sapiens, averages of at least two independent experiments, read-out: Cytotoxicity in different cell lines (IC50, μM) PC-3a
Description: as §2

DU145 = assay: MTT-based cytotoxicity assay, DU145; conditions: Homo sapiens, DU-145, averages of at least two independent experiments, read-out: Cytotoxicity in different cell lines (IC50, μM) DU145
Description: as §2

T1 sequence (Q07817 whole entry, one chain of several): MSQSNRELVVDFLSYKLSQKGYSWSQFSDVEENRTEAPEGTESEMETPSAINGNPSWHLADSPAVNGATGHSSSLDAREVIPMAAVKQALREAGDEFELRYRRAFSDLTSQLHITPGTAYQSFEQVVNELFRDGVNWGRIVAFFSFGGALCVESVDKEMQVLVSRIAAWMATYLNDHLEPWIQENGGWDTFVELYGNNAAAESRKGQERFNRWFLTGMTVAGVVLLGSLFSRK

Compound | Primary Screen mP (Bcl-xL-Beclin 1 complex [1]) [mP] | inhibition at 5 µM (Bcl-xL-Beclin 1 complex [2]; 5 μM, hits of first screen) [%] | inhibition at 10 µM (Bcl-xL-Beclin 1 complex [2]; 10 μM, hits of first screen) [%] | inhibition at 20 µM (Bcl-xL-Beclin 1 complex [2]; 20 μM, hits of first screen) [%] | inhibition at 40 µM (Bcl-xL-Beclin 1 complex [2]; 40 μM, hits of first screen) [%] | inhibition at 80 µM (Bcl-xL-Beclin 1 complex [2]; 80 μM, hits of first screen) [%] | inhibition at 160 µM (Bcl-xL-Beclin 1 complex [2]; 160 μM, hits of first screen) [%] | inhibition at 40 µM (Bcl-xL-Beclin 1 complex [1]) [%] | also measured
C[n+]1cc2c3c(ccc2c2ccc4cc5c(cc4c21)OCO5)OCO3 [Compound A05, SANGUINARINE SULFATE] | 130.6 | – | – | – | – | – | – | 6.61 | inhibition at 5 µM (Bcl-xL-Beclin 1 complex [2]): -1.4%; inhibition at 10 µM (Bcl-xL-Beclin 1 complex [2]): -0.2%; inhibition at 20 µM (Bcl-xL-Beclin 1 complex [2]): 2%; inhibition at 40 µM (Bcl-xL-Beclin 1 complex [2]): 8.4%; inhibition at 80 µM (Bcl-xL-Beclin 1 complex [2]): 20.6%; inhibition at 160 µM (Bcl-xL-Beclin 1 complex [2]): 31.1%
CC(C)=CCCC1(C)C=Cc2c(O)c3c(c(CC=C(C)C)c2O1)OC12C(=CCCC1C(C)(C)O[C@@]2(C/C=C(\C)C(=O)O)C(=O)O)C3=O (stereo partly drawn) [Compound A02, GARCINOLIC ACID] | 124.0 | 2.5 | 3.3 | 3.6 | 7.5 | 18.1 | 22 | 11.8 | –
O=C(Nc1ccccc1)c1ccccc1O [Compound A39, SALICYLANILIDE] | -3.2 | – | – | – | – | – | – | 102 | inhibition at 5 µM (Bcl-xL-Beclin 1 complex [2]): 103%; inhibition at 10 µM (Bcl-xL-Beclin 1 complex [2]): 103%; inhibition at 20 µM (Bcl-xL-Beclin 1 complex [2]): 103%; inhibition at 40 µM (Bcl-xL-Beclin 1 complex [2]): 99.7%; inhibition at 80 µM (Bcl-xL-Beclin 1 complex [2]): 102%; inhibition at 160 µM (Bcl-xL-Beclin 1 complex [2]): 103%
O=C(O)C1=CC(=C(c2ccc(O)c(C(=O)O)c2)c2ccc(O)c(C(=O)O)c2)C=CC1=O [Compound A14, AURIN TRICARBOXYLIC ACID] | 129.7 | 0.7 | 2 | 3.8 | 4.8 | 8.1 | 8.6 | 6.76 | –
COC(=O)CC[C@@H](C)[C@H]1CC[C@H]2[C@@H]3[C@H](O)C[C@@H]4C[C@H](O)CC[C@]4(C)[C@H]3C[C@H](O)[C@]12C [Compound A09, CHOLIC ACID, METHYL ESTER] | 127.0 | 1.6 | 1.5 | 1.7 | 4.2 | 9.3 | 13.2 | 9.59 | –
COc1ccc2nc3ccccc3c(-c3ccncc3)c2c1 [Compound 12] | – | – | – | – | – | – | – | – | IC50 (PC-3): 21.6 ± 2.24 µM; IC50 (PC-3a): 16.4 ± 2.56 µM; IC50 (DU145): 45.4 ± 8.18 µM

Continued, in another order:

Primary Screen mP (Bcl-xL-Beclin 1 complex [1]) [mP] | inhibition at 5 µM (Bcl-xL-Beclin 1 complex [2]; 5 μM, hits of first screen) [%] | inhibition at 10 µM (Bcl-xL-Beclin 1 complex [2]; 10 μM, hits of first screen) [%] | inhibition at 20 µM (Bcl-xL-Beclin 1 complex [2]; 20 μM, hits of first screen) [%] | inhibition at 40 µM (Bcl-xL-Beclin 1 complex [2]; 40 μM, hits of first screen) [%] | inhibition at 80 µM (Bcl-xL-Beclin 1 complex [2]; 80 μM, hits of first screen) [%] | inhibition at 160 µM (Bcl-xL-Beclin 1 complex [2]; 160 μM, hits of first screen) [%] | Compound | inhibition at 40 µM (Bcl-xL-Beclin 1 complex [1]) [%] | also measured
119.7 | – | – | – | – | – | – | CCN(CC)CCNC(=O)COc1ccc(OC)cc1.Cl [Compound A32, MEFEXAMIDE HYDROCHLORIDE] | – | Primary Screen % Inhibition (Bcl-xL-Beclin 1 complex [1]): 14.40%; Dose-response (% Inhibition) 5 μM (Bcl-xL-Beclin 1 complex [2]; 5 μM, hits of first screen): -1.5%; Dose-response (% Inhibition) 10 μM (Bcl-xL-Beclin 1 complex [2]; 10 μM, hits of first screen): 2.6%; Dose-response (% Inhibition) 20 μM (Bcl-xL-Beclin 1 complex [2]; 20 μM, hits of first screen): 4.3%; Dose-response (% Inhibition) 40 μM (Bcl-xL-Beclin 1 complex [2]; 40 μM, hits of first screen): 11.2%; Dose-response (% Inhibition) 80 μM (Bcl-xL-Beclin 1 complex [2]; 80 μM, hits of first screen): 23.1%; Dose-response (% Inhibition) 160 μM (Bcl-xL-Beclin 1 complex [2]; 160 μM, hits of first screen): 32.1%
119.9 | 0.5 | 4.7 | 6.3 | 12 | 22.5 | 20.9 | O=C(O)c1cc(O)c2c(c1)[C@H]([C@H]1c3cc(C(=O)O)cc(O)c3C(=O)c3c(O[C@@H]4O[C@H](CO)[C@@H](O)[C@H](O)[C@H]4O)cccc31)c1cccc(O[C@@H]3O[C@H](CO)[C@@H](O)[C@H](O)[C@H]3O)c1C2=O [Compound A34, SENNOSIDE A] | 12.8 | –
125.4 | -1.1 | -0.6 | -0.1 | 1.6 | 6.3 | 11.1 | CCCc1nc2c(C)cc(-c3nc4ccccc4n3C)cc2n1Cc1ccc(-c2ccccc2C(=O)O)cc1 [Compound A16] | 5.2 | –
43.8 | 39.8 | 54.8 | 64.7 | 70.9 | 102 | 103 | CC[C@@]1(O)C(=O)OCc2c1cc1n(c2=O)Cc2cc3c(CN(C)C)c(O)ccc3nc2-1 [Compound A23, TOPOTECAN HYDROCHLORIDE] | 68.7 | –
